# In patent publication US8242148B2 (priority 2005, dated 2012):
# Entries after “also recorded” stand apart in the source; their conditions may differ. Counter-ions that a name gives are not always drawn. Like-named read-outs stand apart in the source and are kept apart here.
# Assays:
# [1] = humans, cited from earlier work
# [2] = test system: histamine H3 autoreceptors; details: cats, oral, cited from earlier work
# [3] = test system: histamine release in the anterior hypothalamus; details: rats; cited from earlier work
# HPA axis [4] = assay: Cortisol response / HPA axis activity in rats; type: in vivo, rat
# Excerpt: Certain subtypes of depression have been associated with decreased function of the hypothalamic-pituitary-adrenal (HPA) axis as evidenced by low cortisol and/or decreased CRH and ACTH levels.
# [5] = test system: patients with multiple sclerosis; details: cited from earlier work
# ADHD adults [6] = assay: Satiety Quotient (surrogate marker of appetite suppression); type: in vivo, human; details: RMANOVA, treatment 0, 50, 100, 200 mg
# Excerpt: Instead, the study used surrogate markers of ADHD efficacy which are widely accepted, such as the signal detection (A prime) measures from the Continuous Performance Task (CPT) and a Go-no-Go task. Improvements or enhanced signal detection for either of these tasks track well with clinical improvements measuring ADHD symptom severity and frequency. (Epstein et al., Relations Between Continuous Performance Test Performance Measures and ADHD Behaviors, J. of Abnormal Child Psych. 31:5, 543-54 (2001)). […] To reflect this design, the study was analyzed using a repeated-measures analysis of variance (ANOVA) model (in SAS version 9.2, using the MIXED procedure). Treatment (4 levels: 0, 50, 100, 200) and Period (3 levels) and their interaction were included as fixed within-subject factors.
# ADHD adults [7] = assay: Continuous Performance Task (CPT) signal detection, A prime and B prime; type: in vivo, human
# Excerpt: Subjects were randomly assigned to active drug, dose, and/or placebo using a modified Latin Square design. Safety measures, including vital signs, electrocardiogram, peak respiratory flow, clinical laboratory tests, and logging of adverse events were observed. […] Instead, the study used surrogate markers of ADHD efficacy which are widely accepted, such as the signal detection (A prime) measures from the Continuous Performance Task (CPT) and a Go-no-Go task. Improvements or enhanced signal detection for either of these tasks track well with clinical improvements measuring ADHD symptom severity and frequency. (Epstein et al., Relations Between Continuous Performance Test Performance Measures and ADHD Behaviors, J. of Abnormal Child Psych. 31:5, 543-54 (2001)). […] To reflect this design, the study was analyzed using a repeated-measures analysis of variance (ANOVA) model (in SAS version 9.2, using the MIXED procedure). Treatment (4 levels: 0, 50, 100, 200) and Period (3 levels) and their interaction were included as fixed within-subject factors. In the case of signal detection measures, measures over three repeated blocks in each of three sessions were averaged to produce a summary measure for that session. Sessions were performed prior to drug administration and at two and four hours post-administration. A third within-subject factor (time since drug administration in hours; 0, 2, and 4 hours) was included along with its interactions with the treatment and period effects. A compound-symmetry structure was assumed for the correlation pattern of the within-subject residuals (equivalent to allowing each subject to have an individual intercept term to account for correlation among repeat measures on the same subject). Principle hypothesis tests were comparisons of the average of the non-zero doses against the placebo, as well as comparisons of each individual non-zero dose versus placebo. These were performed as linear contrasts, two-sided, α=0.05.
# [8] = animal studies, peripheral administration; cited from earlier work
# [9] = test system: adult human subjects having ADHD; details: in vivo
# Excerpt: (§1) Subjects were randomly assigned to active drug, dose, and/or placebo using a modified Latin Square design. Safety measures, including vital signs, electrocardiogram, peak respiratory flow, clinical laboratory tests, and logging of adverse events were observed.
# There were 39 total adverse events (AEs) across 16 total subjects, of which 12/16 accounted for all 39 reports. Only 16/39 AEs were rated as moderate in severity. […] Of the 39 total AEs, 21/39 were judged by the investigator to be possibly related to study drug based primarily on proximity (within 3 hours) to study drug administration. Only 3/39 AEs were judged as probably related to study drug and consisted of orthostasis, drowsiness and agitation. All adverse events resolved within 24 hours of the visit and most resolved by the end of each study visit (each visit lasting 5-6 hours). One subject experienced orthostatic hypotension at 1 hour following study drug administration on two separate occasions (Visit 1 (rated as mild) and Visit 3 (rated as moderate), the later judged to be probably study drug-related.
# (§2) Those AEs which accounted for >10% of the total were headache (n=11), fatigue (n=8), somnolence (n=8) and dizziness (n=4). […] The ECG data is summarized in Table 1 and categorized as benign.
# rats = details: cited from earlier work
# healthy volunteers = details: cited from earlier work
# ADHD adults [10] = assay: ECG parameters (QT, QTc) after single-dose betahistine in ADHD adults; type: in vivo, human; details: for QT Baseline / QTc Baseline: baseline (pre-dose); for QT 2 hours / QTc 2 hours: 2 hours post-dose
# Excerpt: as §1, §2
# Throughout the study, two subjects experienced a conversion of their baseline ECG from normal to abnormal but not clinically significant two hours following a dose of study drug betahistine. […] Each of these abnormal ECGs were not repeated in these same subjects with other doses of betahistine.
# ADHD adults [11] = assay: Pulmonary function (forced expiratory volume); type: in vivo, human
# Procedure: as §1
# All pulmonary function readings were analyzed by a board certified pulmonologist and no report was rated clinically significant.
# [12] = test system: patients with cerebrovascular dementia; details: placebo-controlled trials; cited from earlier work
# ADHD adults [13] = assay: Heart rate and blood pressure change from baseline; type: in vivo, human
# Excerpt: as §1
# Changes from baseline in heart rate and BP were not dose dependent, nor were changes in these cardiovascular parameters by dose appreciably different from the placebo condition.
# HPA axis [14] = details: mice; cited from earlier work
# [15] = Plasma pharmacokinetics of 2-pyridylacetic acid after betahistine hydrochloride (LC/MS/MS); details: for Terminal elimination rate / Cmax: mean ± SD; for AUC(0-t) / Tmax / half-life / Cmax: plasma
# Procedure: Blood samples for pharmacokinetic analysis were collected just prior to study drug dosing, and at 0.5, 1, 1.5, 2, 3, and 4 hours. Samples (5 ml) were collected in tubes containing EDTA and were placed on ice after gentle shaking. Samples were centrifuged within 15 min at 4° C. at 3000×g for 10 min and plasma was separated into polypropylene tubes. Plasma was stored at −70° C. until further analysis.
# Plasma samples were analyzed using a validated liquid chromatography tandem mass spectroscopy (LC/MS/MS) as reported by Chen et al. with minor modifications. To 500 μL of plasma, 100 μL of 0.5 M orthophosphoric acid (H3PO4) was added. The mixed sample was extracted with 5 ml of ethyl acetate and 2-propanol mixture (97.5:2.5, v/v) and vortex-mixed thoroughly for 1 min. Sample was centrifuged at 2000×g for 10 min maintained at 4° C., the upper clear portion was carefully transferred to a glass tube and evaporated to dryness under nitrogen gas at 25° C. The residue was reconstituted with 100 μL of mobile phase and filtered using a Sep-pak® (Waters) SPE cartridges which was pre-equilibrated with mobile phase. The processed samples were analyzed using a liquid chromatography equipped with a Surveyor autosampler model Plus and a Surveyor quaternary gradient HPLC-pump (Thermo Fisher Scientific) connected to a linear ion trap-Fourier Transform LTQ-FT™ mass spectrometer operated in positive ion electrospray mode.
# Plasma concentration-time profile data were used to calculate Cmax, time to achieve Cmax (Tmax), terminal elimination half-life (T1/2), area under the plasma concentration-time curve from zero to last measurable time point (AUC0-t). The half life (T1/2) was calculated as 0.693/λz, where λz is the terminal-phase elimination rate constant. AUC0-t was calculated using the linear trapezoidal rule area under the curve (AUC0-t) from time zero to the time of the last measurable concentration (CT) at 4 hrs (last measurable time point).
# [16] = RMANOVA, treatment 0, 50, 100, 200 mg
# [17] = RMANOVA, treatment 0, 50, 100, 200 mg, DF 3/29
# [18] = after 100 mg betahistine hydrochloride
smiles,measurement,setting,value
CNCCc1ccccn1.CS(=O)(=O)O.CS(=O)(=O)O [betahistine mesylate],Bioavailability,[1]; oral,less than 1%
CNCCc1ccccn1 [betahistine dihydrochloride],Dose required for rapid biological effect on histamine H3 autoreceptors,[2]; relative to human-equivalent 24-48 mg/day,5 fold and 10 fold higher equivalent doses were required
NC(=O)C[S+]([O-])C(c1ccccc1)c1ccccc1 (centres unmarked) [modafinil],Hypothalamic histamine release,[3],increase hypothalamic histamine release
CNCCc1ccccn1 [betahistine],Cortisol response to stress,HPA axis [4],increases the cortisol response to stress
same,Effect on decrease in cortisol after dexamethasone administration,HPA axis [4],counteracts the decrease in cortisol
same,Symptoms of fatigue,[5],statistically significant reduction
same,"Satiety Quotient - 2 hrs, Treatment effect, Pr > F",ADHD adults [6],0.4475
same,"Satiety Quotient - 4 hrs, Treatment effect, Pr > F",ADHD adults [6],0.8360
same,"Satiety Quotient - 2 hrs, Treatment effect, F Value",ADHD adults [6]; DF 3/21,0.92
same,"Satiety Quotient - 4 hrs, Treatment effect, F Value",ADHD adults [6]; DF 3/21,0.28
same,"APRIME_CPT, Treatment effect, Pr > F",ADHD adults [7]; [16],0.0254
same,"BPRIME_CPT, Treatment effect, Pr > F",ADHD adults [7]; [16],0.0045
same,"APRIME_CPT, Treatment effect, F Value",ADHD adults [7]; [17],3.59
same,"BPRIME_CPT, Treatment effect, F Value",ADHD adults [7]; [17],5.38
same,Effect on attention (CPT sensitivity and inhibition),"ADHD adults [7]; adults with ADHD, single doses up to 200 mg",improves attention
same,"CPT A prime, effect vs placebo",ADHD adults [7]; betahistine vs placebo,demonstrated a treatment effect compared to placebo
same,CNS concentration relative to plasma levels,[8],approximately half
same,Biologic effects on brain histamine or histamine H3 receptors,[2]; roughly the human dose (48 mg/day),no biologic effects
same,AEs judged possibly related to study drug,[9]; human,21/39
same,AEs judged probably related to study drug,[9]; human,3/39
same,AEs rated as moderate in severity,[9]; human,16/39
same,Total adverse events,[9]; human,39
same,AEs reported as severe,[9],No AEs were reported as severe
same,Relationship between frequency or severity of AEs and dose,[9],no relationship
same,Eating behavior,rats,decrease eating behavior in rats in a dose-dependent manner
same,Effects on arousal and vigilance,healthy volunteers; 32 mg dose vs placebo,no effect; also recorded: no noticeable CNS-stimulating effects
same,Effects on arousal and vigilance,healthy volunteers; single dose 64 mg vs placebo,greater than those observed with placebo; also recorded: only mild stimulant-like effects
same,"ECG data, category","ADHD adults [10]; 50, 100, 200 mg",benign
same,QT Baseline,ADHD adults [10]; betahistine 50 mg group,416 ± 33 ms
same,QTc Baseline,ADHD adults [10]; betahistine 50 mg group,416 ± 18 ms
same,QT 2 hours,ADHD adults [10]; betahistine 50 mg,403 ± 26 ms
same,QTc 2 hours,ADHD adults [10]; betahistine 50 mg,407 ± 18 ms
same,QT Baseline,ADHD adults [10]; betahistine 100 mg group,412 ± 27 ms
same,QTc Baseline,ADHD adults [10]; betahistine 100 mg group,409 ± 13 ms
same,QT 2 hours,ADHD adults [10]; betahistine 100 mg,395 ± 37 ms
same,QTc 2 hours,ADHD adults [10]; betahistine 100 mg,401 ± 14 ms
same,QT Baseline,ADHD adults [10]; betahistine 200 mg group,403 ± 37 ms
same,QTc Baseline,ADHD adults [10]; betahistine 200 mg group,410 ± 18 ms
same,QT 2 hours,ADHD adults [10]; betahistine 200 mg,400 ± 34 ms
same,QTc 2 hours,ADHD adults [10]; betahistine 200 mg,405 ± 17 ms
same,QT and rate corrected QTc (Bazett's) change from baseline,"ADHD adults [10]; betahistine 50, 100, 200 mg vs placebo (FIG. 1)",No clinically significant change
same,"Abnormal ECGs, clinical significance","ADHD adults [10]; two subjects abnormal but NCS at 2 hours (200 mg, 50 mg)",no abnormal ECGs were read as clinically significant
same,Effect on airway compliance and/or pulmonary function,ADHD adults [11]; FEV 25-75 at four hour post-dose,minimal or no effect
same,Change in forced expiratory volume in 1 second (FEV) from baseline,ADHD adults [11]; betahistine vs placebo (FIG. 4),No clinically significant change
same,"Biologic half-life, mean",[1],5 hours
same,"Biologic half-life, variability",[1],2-11 hours
same,Motor activity and cognitive functioning,[12],increase motor activity and improve cognitive functioning
same,Heart rate and blood pressure effects,"ADHD adults [13]; 50, 100, 200 mg, not dose dependent",minimal and judged as not clinically significant
same,Change in systolic blood pressure from baseline,"ADHD adults [13]; betahistine 50, 100, 200 mg vs placebo (FIG. 2)",No clinically significant change
same,Change in diastolic blood pressure from baseline,"ADHD adults [13]; betahistine 50, 100, 200 mg vs placebo (FIG. 3)",No clinically significant change
NNCCc1ccccc1 [phenelzine],Cortisol levels,HPA axis [14],increases cortisol levels
O=C(O)Cc1ccccn1 [2-pyridylacetic acid],Half-life and Tmax across the dose levels,"[15]; 50, 100, 200 mg betahistine",remained unchanged
same,Terminal elimination rate,[15]; after 50 mg betahistine hydrochloride,0.43 ± 0.35 h⁻¹
same,Terminal elimination rate,[15]; [18],0.25 ± 0.18 h⁻¹
same,Terminal elimination rate,[15]; after 200 mg betahistine hydrochloride,0.28 ± 0.17 h⁻¹
same,AUC(0-t),"[15]; human, 50 mg",1300 ± 587 ng·h/mL
same,Tmax,"[15]; human, 50 mg",1.55 ± 0.44 h
same,half-life,"[15]; human, 50 mg",4.24 ± 1.68 h
same,Cmax,"[15]; human, 50 mg, Cmax, after 50 mg betahistine hydrochloride",611 ± 490 ng/mL
same,AUC(0-t),"[15]; human, 100 mg",2780 ± 1840 ng·h/mL
same,Tmax,"[15]; human, 100 mg",1.3 ± 0.35 h
same,half-life,"[15]; human, 100 mg",3.74 ± 1.97 h
same,Cmax,"[15]; human, 100 mg, Cmax, after 100 mg betahistine hydrochloride",1040 ± 673 ng/mL
same,AUC(0-t),"[15]; human, 200 mg",5250 ± 2430 ng·h/mL
same,Tmax,"[15]; human, 200 mg",2.05 ± 0.86 h
same,half-life,"[15]; human, 200 mg",3.88 ± 3.38 h
same,Cmax,"[15]; human, 200 mg, Cmax, after 200 mg betahistine hydrochloride",2040 ± 905 ng/mL
same,Cmax,[15]; [18],1043.88 ± 673.49 ng/mL
